Data as given in the supplement of paper PMC10307832.

How the values were obtained:
Assay in all cases: relative viability (nuclei count vs DMSO), 5 days (fraction); higher = more cells survive
[1] = compound: C=CC(=O)Nc1cc(-n2c(=O)ccc3cnc4ccc(-c5ccc(NS(C)(=O)=O)cc5)cc4c32)ccc1C [BMX-IN-1] + CC(=O)c1c(C)c2cnc(Nc3ccc(N4CCNCC4)cn3)nc2n(C2CCCC2)c1=O [Palbociclib] (partner 0.5 µM)
How it was run: (§1)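 Nuclei were stained with Hoechst during a one-step fixation (final 0.05% Triton X-100, 1% formaldehyde, 1 ug/ml Hoechst) carried out 5 days after dosing, then counted on 4× images. The cells, lung cancer lines in 1536-well plates, had been dosed by pin tool the day after seeding with one drug alone or a fixed anchor-drug dose plus five library-drug doses (not always all listed) in √10 steps. Relative viability is the nuclei count in treated wells divided by that in vehicle wells, and each value is the median of duplicate plates.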

[2] = compound: C=CC(=O)N1CCC[C@@H](n2nc(-c3ccc(Oc4ccccc4)cc3)c3c(N)ncnc32)C1 [Ibrutinib] + C[C@]1(O)C[C@@H](c2nc(-c3ccc4ccc(-c5ccccc5)nc4c3)c3c(N)nccn32)C1 [Linsitinib] (partner 1 µM)
How it was run: as §1

[3] = compound: C=CC(=O)N1CCC[C@@H](n2nc(-c3ccc(Oc4ccccc4)cc3)c3c(N)ncnc32)C1 [Ibrutinib] + CC(C)C[C@H](NC(=O)[C@H](Cc1ccccc1)NC(=O)c1cnccn1)B(O)O [Bortezomib] (partner 0.002 µM)
How it was run: as §1

[4] = compound: C=CCc1cccc(/C=N/NC(=O)CN2CCN(Cc3ccccc3)CC2)c1O [PAC-1] + Nc1nc2[nH]cc(CCc3ccc(C(=O)N[C@@H](CCC(=O)O)C(=O)O)cc3)c2c(=O)[nH]1 [Pemetrexed] (partner 0.2 µM)
How it was run: as §1

| Cell Line | relative viability ([1]; first compound 0.02 µM) | relative viability ([1]; first compound 0.2 µM) | relative viability ([1]; first compound 0.6325 µM) | relative viability ([1]; first compound 2 µM) | relative viability ([2]; first compound 0.01581 µM) | relative viability ([2]; first compound 0.05 µM) | relative viability ([2]; first compound 0.1581 µM) | relative viability ([2]; first compound 0.5 µM) | relative viability ([3]; first compound 0.01581 µM) | relative viability ([3]; first compound 0.05 µM) | relative viability ([3]; first compound 0.1581 µM) | relative viability ([3]; first compound 0.5 µM) | relative viability ([4]; first compound 0.02 µM) | relative viability ([4]; first compound 0.06325 µM) | relative viability ([4]; first compound 0.2 µM) | relative viability ([4]; first compound 2 µM) | relative viability ([2]; first compound 0.005 µM) | relative viability ([3]; first compound 0.005 µM) |
| --- | --- | --- | --- | --- | --- | --- | --- | --- | --- | --- | --- | --- | --- | --- | --- | --- | --- | --- |
| NCI-H1915 | 0.54 | 0.543 | 0.555 | 0.538 | 1.03 | 1.12 | 1.13 | 1.1 | 0.996 | 1 | 1.05 | 0.979 | 0.552 | 0.471 | 0.471 | 0.473 | – | – |
| NCI-H1975 | 1 | 0.655 | 0.685 | 0.698 | 0.834 | 0.844 | 0.985 | 0.503 | 0.328 | 0.274 | 0.383 | 0.226 | 0.295 | 0.279 | 0.306 | 0.289 | 0.916 | 0.417 |
| NCI-H1993 | 0.706 | 0.683 | 0.646 | 0.55 | 0.698 | 0.694 | – | 0.647 | 0.882 | 0.789 | – | 0.681 | 0.636 | 0.565 | 0.59 | 0.589 | 0.738 | 0.728 |
| NCI-H2009 | 0.182 | 0.212 | 0.207 | 0.254 | 1.13 | 1.14 | 1.23 | 1.18 | 1 | 0.988 | 0.864 | 1.05 | 1.03 | 0.989 | 1.1 | 0.989 | 1.21 | 1.09 |
| NCI-H2023 | 0.48 | 0.389 | 0.386 | 0.381 | 0.494 | 0.53 | 0.596 | 0.456 | 0.819 | 0.949 | 1.04 | 0.876 | 0.211 | 0.215 | 0.244 | 0.229 | 0.601 | 0.848 |
| NCI-H2085 | 0.473 | 0.438 | 0.484 | 0.46 | 0.884 | 0.865 | 0.895 | 0.775 | 0.954 | 0.983 | 0.963 | 0.963 | 0.945 | 0.885 | 0.953 | 1.03 | 1.04 | – |
| NCI-H2087 | 0.214 | 0.229 | 0.252 | 0.257 | 1.06 | – | 1.02 | 0.943 | 0.741 | 0.851 | 0.844 | 0.889 | 0.675 | 0.641 | 0.663 | 0.724 | 1.07 | 0.755 |
| NCI-H2126 | 0.379 | 0.345 | 0.363 | 0.322 | 0.66 | 0.705 | 0.732 | 0.539 | 1.13 | 1.12 | 1.11 | 1.1 | 0.679 | 0.722 | 0.755 | 0.654 | – | – |
| NCI-H2228 | 0.948 | 0.878 | 0.608 | 0.785 | 0.689 | 0.71 | 0.936 | 0.454 | 0.989 | 1.13 | 1.37 | 0.92 | 0.344 | 0.361 | 0.325 | 0.346 | 0.62 | 0.996 |
| NCI-H2347 | 0.443 | 0.406 | 0.458 | 0.393 | 0.979 | 1.04 | 0.816 | 1.05 | 0.982 | 1.03 | – | 0.871 | 0.412 | 0.435 | 0.41 | 0.46 | – | – |
| NCI-H2405 | 0.574 | 0.585 | 0.584 | 0.542 | 0.801 | 0.929 | – | 0.869 | 0.977 | 0.948 | 0.856 | 0.767 | 1.08 | 1.06 | 1.06 | 1.02 | 0.849 | 1.07 |
| NCI-H3122 | 0.193 | 0.204 | 0.174 | 0.164 | 1.03 | 1.03 | 0.992 | 1.07 | 1.05 | 1.08 | 0.955 | 1.02 | 0.196 | 0.199 | 0.201 | 0.207 | – | 1.07 |
| PC-3 [JPC-3] | 0.544 | 0.598 | 0.546 | 0.521 | 0.93 | 0.956 | 0.955 | 0.619 | 0.805 | 0.831 | 0.826 | 0.635 | 1.09 | 1.32 | 1.25 | 1.09 | 0.917 | 0.837 |
| PC-14 | 0.583 | 0.478 | 0.58 | 0.47 | 0.949 | 0.976 | 0.902 | 0.462 | 0.878 | 0.835 | 0.819 | 0.744 | 0.13 | 0.139 | 0.126 | 0.179 | 1 | 0.891 |
| RERF-LC-KJ | 1.15 | 1.11 | 1.18 | 1.16 | 0.804 | 0.818 | 0.824 | 0.778 | 0.977 | 1.03 | 1 | 0.851 | 0.509 | 0.463 | 0.483 | 0.449 | 0.903 | 0.96 |
| SK-LU-1 | 0.323 | 0.399 | 0.385 | 0.335 | 1.02 | 1.21 | 1.21 | 1.04 | 1.11 | 0.897 | 1.14 | 1.23 | 0.944 | 1.02 | 0.915 | 0.99 | 0.776 | – |
| SW 1573 | 0.411 | 0.413 | 0.391 | 0.334 | 0.761 | 0.925 | 0.814 | 0.809 | 0.97 | 0.8 | 0.992 | 0.984 | 0.831 | 0.778 | 0.83 | 0.855 | 0.732 | 0.771 |
| UMC-11 | 0.345 | 0.336 | 0.341 | 0.318 | 0.987 | 1.17 | 1.14 | 0.938 | 0.637 | 0.898 | 0.654 | 0.736 | 0.78 | 0.791 | 0.802 | 0.79 | 0.903 | 0.664 |
